Laboratory results published in patent US6828111B2, “Three-dimensional in vitro model of human preneoplastic breast disease” (Wayne State University, priority 2000, dated 2004).
Entries after “also recorded” stand apart in the source; their conditions may differ.

Tests used:
Assay type in all cases: cell-based, human
EIII8-HUVEC co-cultures [1] = test: Heterotypic EIII8-HUVEC 3D Matrigel co-culture, morphology; details: for inhibition of endothelial sprouting and associated ductal-alveolar morphogenesis: 1 nM E2 plus 100-fold molar excess of antiestrogen, day 5
From the text: For heterotypic 3D co-cultures, 5×10^4 MCF10A, MCF10AT1, or EIII8 cells were mixed with an equal number of HUVECs, human breast fibroblasts (reduction mammoplasty, benign or tumor-derived), IMR-90, HT1080 or NIH 3T3 cells. For heterotypic tricultures, MCF10A or EIII8 cells were mixed with equivalent numbers of human breast fibroblasts (reduction mammoplasty, benign or tumor-derived) and HUVECs and seeded onto chamber slides coated with Matrigel as described for homotypic cultures. Typically, heterotypic co-cultures were performed in SFM supplemented with EGF and bFGF since this medium results in optimal viability, growth and 3D organization of both HUVEC and MCF10A cells. Typically, heterotypic cultures were performed in SFM supplemented with EGF and bFGF because it allows optimal viability, growth and 3D organization of HUVEC, fibroblasts and MCF10A cells. Heterotypic co-cultures were routinely maintained up to 3 weeks, and morphological development was analyzed by phase contrast microscopy. F To assess growth effects of E2 on homotypic (EIII8) or heterotypic (EIII8-HUVEC) 3D cultures, 5×10^4 EIII8 cells were seeded alone or mixed with an equivalent number of HUVEC in the appropriate medium in 8-well chamber slides coated with Matrigel as described above. Slides were incubated overnight to allow attachment of the cells, and treated with vehicle (0.01% ethanol, v/v), pure antiestrogen ICI 182,780 alone (100 or 1000 nM (Zeneca Pharmaceuticals, […]2 (0.1, 1 or 10 nM; Sigma Chemical Co., St. Louis, Mo.), or a combination of 1 nM E2 and 100- or 1000-fold molar excess of ICI 182,780. Cultures were incubated at 37° C. for 5 days, after which cell viability was measured with the MTS (3-(4,5-dimethylthiazol-2-yl)-5-(3-carboxymethoxyphenyl)-2-(4-sulfophenyl)-2H-tetrazolium) kit according to the manufacturer's directions (Promega Corp, Madison, Wis.).

EIII8 cells = test: Homotypic EIII8 3D Matrigel culture, phase contrast morphology
MCF10A-HUVEC co-cultures = test: Heterotypic MCF10A-HUVEC 3D Matrigel co-culture, morphology
From the text: For heterotypic 3D co-cultures, 5×10^4 MCF10A, MCF10AT1, or EIII8 cells were mixed with an equal number of HUVECs, human breast fibroblasts (reduction mammoplasty, benign or tumor-derived), IMR-90, HT1080 or NIH 3T3 cells. For heterotypic tricultures, MCF10A or EIII8 cells were mixed with equivalent numbers of human breast fibroblasts (reduction mammoplasty, benign or tumor-derived) and HUVECs and seeded onto chamber slides coated with Matrigel as described for homotypic cultures. Typically, heterotypic co-cultures were performed in SFM supplemented with EGF and bFGF since this medium results in optimal viability, growth and 3D organization of both HUVEC and MCF10A cells. Typically, heterotypic cultures were performed in SFM supplemented with EGF and bFGF because it allows optimal viability, growth and 3D organization of HUVEC, fibroblasts and MCF10A cells. Heterotypic co-cultures were routinely maintained up to 3 weeks, and morphological development was analyzed by phase contrast microscopy. F

EIII8-HUVEC co-cultures [2] = test: 3D growth of EIII8-HUVEC cultures by MTS assay and trypan blue counts
Procedure: To assess growth effects of E2 on homotypic (EIII8) or heterotypic (EIII8-HUVEC) 3D cultures, 5×10^4 EIII8 cells were seeded alone or mixed with an equivalent number of HUVEC in the appropriate medium in 8-well chamber slides coated with Matrigel as described above. Slides were incubated overnight to allow attachment of the cells, and treated with vehicle (0.01% ethanol, v/v), pure antiestrogen ICI 182,780 alone (100 or 1000 nM (Zeneca Pharmaceuticals, […]2 (0.1, 1 or 10 nM; Sigma Chemical Co., St. Louis, Mo.), or a combination of 1 nM E2 and 100- or 1000-fold molar excess of ICI 182,780. Cultures were incubated at 37° C. for 5 days, after which cell viability was measured with the MTS (3-(4,5-dimethylthiazol-2-yl)-5-(3-carboxymethoxyphenyl)-2-(4-sulfophenyl)-2H-tetrazolium) kit according to the manufacturer's directions (Promega Corp, Madison, Wis.). Measurements were made from triplicate sets of wells for each treatment. Background absorbance was corrected by preparing triplicate sets of wells containing only Matrigel (“no cell”) and the same volume of medium and MTS reagent as in experimental wells. Average absorbances from “no cell” wells were subtracted from sample absorbance values containing cells to yield corrected absorbance, and the results represent the average±S.E. of triplicate samples. Each experiment was repeated at least three times. Since the MTS assays performed here differs from routine MTS assays in that they are done on 3D cultures growing in Matrigel rather than monolayers, results of MTS assays were validated by performing direct cell counts of viable cells in the 3D cultures. For this, the medium was removed, wells rinsed with PBS, and Matrigel was digested with dispase for 2 h at 37° C. The digested material was centrifuged at 4000×g for 10 min, and the pellet treated with trypsin to recover single cells from the 3D tubular structures. The number of viable cells was determined by trypan blue exclusion in a hemocytometer. Results were expressed as mean±S.E. from three independent experiments.

VEGF165 = test: Western blot of VEGF165 in culture media of EIII8-HUVEC 3D cultures
Procedure: (§1) 5×10^4 EIII8 or MCF10A cells were seeded alone or mixed with an equivalent number of HUVEC on Matrigel in SFM media as described above. Cells were incubated for 6 h to attach and the medium was replaced with fresh SFM. After appropriate incubation, the culture media from homotypic and heterotypic co-cultures were collected, centrifuged to remove debris and stored at −20° C. Following removal of culture medium, matrix containing the 3D structures was either solubilized for SDS-PAGE and Western blot analysis or fixed in buffered formalin for evaluation of morphology and distribution of functional markers. Analysis of expression of VEGF, IL-8, Estrogen receptor (ER) and Flk-1/KDR proteins was carried out by Western analysis with specific antibodies. […] The following antibodies to human proteins were used: (1) rabbit polyclonal anti-VEGF antisera (recognizes C-terminal epitope of VEGF165, VEGF189 and VEGF206; Oncogene Science), mouse anti-ER mAb (Clone 1D5; reacts with the N-terminal domain or A/B region of the ER; Dako Corp., Carpenteria, Calif.), mouse anti-Flk-1/KDR mAb (Chemicon International, Inc.) and goat polyclonal anti-IL-8 antibody (R&D Systems). Immunoreactive bands were visualized by chemiluminescence, and band intensities were quantitated with a Model 300A densitometer (Molecular Dynamics, Sunnyvale, Calif.).

IL-8 = test: Western blot of IL-8 in culture media of EIII8-HUVEC 3D cultures
Procedure: as §1

Flk-1/KDR = test: Western blot of Flk-1/KDR in matrix fractions of EIII8-HUVEC 3D cultures; details: for regulation of Flk-1/KDR protein levels: 10-day old co-cultures
Procedure: (§2) 5×10^4 EIII8 or MCF10A cells were seeded alone or mixed with an equivalent number of HUVEC on Matrigel in SFM media as described above. Cells were incubated for 6 h to attach and the medium was replaced with fresh SFM. After appropriate incubation, the culture media from homotypic and heterotypic co-cultures were collected, centrifuged to remove debris and stored at −20° C. Following removal of culture medium, matrix containing the 3D structures was either solubilized for SDS-PAGE and Western blot analysis or fixed in buffered formalin for evaluation of morphology and distribution of functional markers.
Analysis of expression of VEGF, IL-8, Estrogen receptor (ER) and Flk-1/KDR proteins was carried out by Western analysis with specific antibodies. Aliquots of unconcentrated conditioned media or lysates of 3D cultures containing 20 or 40 μg total protein, respectively, were collected after indicated culture intervals, separated by SDS-PAGE on 12.5% (VEGF), 17% (IL-8) or 7% (ER and Flk-1/KDR) polyacrylamide gels (Laemmli, UK, Nature 227:680-685, 1970), and subjected to Western blot analysis. The following antibodies to human proteins were used: (1) rabbit polyclonal anti-VEGF antisera (recognizes C-terminal epitope of VEGF165, VEGF189 and VEGF206; Oncogene Science), mouse anti-ER mAb (Clone 1D5; reacts with the N-terminal domain or A/B region of the ER; Dako Corp., Carpenteria, Calif.), mouse anti-Flk-1/KDR mAb (Chemicon International, Inc.) and goat polyclonal anti-IL-8 antibody (R&D Systems). Immunoreactive bands were visualized by chemiluminescence, and band intensities were quantitated with a Model 300A densitometer (Molecular Dynamics, Sunnyvale, Calif.).

[3] = system: EIII8+31R+HUVEC tricultures; test: 3D growth of EIII8+31R+HUVEC tricultures, viable cell count; details: 1 or 10 nM E2, 6 days, reduction mammoplasty fibroblasts
Procedure: (§3) 3-D cultures were set up by seeding 5×10^4 EIII8, HUVEC, […] or […] (reduction mammoplasty fibroblasts), […] or […] (tumor-derived breast fibroblasts) alone or mixing 5×10^4 EIII8 cells with an equivalent number of […] (or […]) or […] (or […]) in the absence or presence of an equivalent number of HUVEC cells onto chamber slides coated with Matrigel as described above. Cultures were incubated at 37° C. for 6 days, after which the cell viability was measured in the 3-D cultures. The medium was removed, wells were rinsed with phosphate buffered saline, and the Matrigel was digested with dispase for 2 h at 37° C. The digested material was centrifuged at 4000×g for 10 min, and the pellet was treated with trypsin to recover single cells from the 3-D structures. The number of viable cells was determined by trypan blue exclusion in a hemocytometer and results expressed as average±SE from three independent experiments. […]

[4] = system: EIII8+38T+HUVEC tricultures; test: 3D growth of EIII8+38T+HUVEC tricultures, viable cell count
Procedure: as §3

[5] = system: wild type ER protein (67 kDa); test: Western blot of ER in matrix fractions of EIII8-HUVEC 3D cultures; details: 100-fold molar excess over E2, day 5; 42 kDa ER-reactive protein appears
Procedure: as §2
Analysis of expression of VEGF, IL-8, Estrogen receptor (ER) and Flk-1/KDR proteins was carried out by Western analysis with specific antibodies. Aliquots of unconcentrated conditioned media or lysates of 3D cultures containing 20 or 40 μg total protein, respectively, were collected after indicated culture intervals, separated by SDS-PAGE on 12.5% (VEGF), 17% (IL-8) or 7% (ER and Flk-1/KDR) polyacrylamide gels (Laemmli, UK, Nature 227:680-685, 1970), and subjected to Western blot analysis. […] Immunoreactive bands were visualized by chemiluminescence, and band intensities were quantitated with a Model 300A densitometer (Molecular Dynamics, Sunnyvale, Calif.).

CC/C(=C(\c1ccc(O)cc1)c1ccc(OCCN(C)C)cc1)c1ccccc1 [4(OH) tamoxifen]
inhibition of endothelial sprouting and associated ductal-alveolar morphogenesis (EIII8-HUVEC co-cultures [1]): dramatic inhibition

C[C@]12CC[C@@H]3c4ccc(O)cc4CC[C@H]3[C@@H]1CC[C@@H]2O [E2, 17 β-estradiol]
effect on EIII8 3D tubular structures (tube thickening, central spaces, connecting bridges) (EIII8 cells; 1 or 10 nM E2, 5 days, vs control cultures): marked thickening of tubes; also recorded: induce formation of several new central spaces and connecting bridges | growth of endothelial cell-enriched spots and ductal-alveolar outgrowths (EIII8-HUVEC co-cultures [1]; 1 nM E2, 5-day co-cultures, vs control): enhanced | influence on growth and proliferation of endothelial or epithelial cells (MCF10A-HUVEC co-cultures; addition of E2 (1 nM), day 5): no significant influence | increase in growth over control cultures (EIII8-HUVEC co-cultures [2]; 10 nM E2, day 5, p<0.01): 2 fold | concentrations giving dose dependent induction of growth (EIII8-HUVEC co-cultures [2]; day 5, MTS and trypan blue assays): > 1 nM | increase in VEGF165 levels over control cultures (VEGF165; 1 nM E2, day 5, densitometry): 4 fold | increase in VEGF165 levels over control cultures (VEGF165; 1 nM E2, day 10, densitometry): 8 fold | regulation of IL-8 expression (IL-8; 1 nM E2, days 5 and 10): did not appear to regulate IL-8 expression | levels of Flk-1/KDR protein, E2-treated vs control (Flk-1/KDR; 1 nM E2, 5 day-old cultures): equally up-regulated | regulation of Flk-1/KDR protein levels (Flk-1/KDR): no longer regulated | stimulation of triculture growth [3]: failed to stimulate growth | increase in triculture growth ([4]; apparent only with 10 nM E2, 6 days, p<0.03): marginal increase

C[C@]12CC[C@@H]3c4ccc(O)cc4C[C@@H](CCCCCCCCC[S+]([O-])CCCC(F)(F)C(F)(F)F)[C@H]3[C@@H]1CC[C@@H]2O (some centres unmarked) [ICI 182,780]
blocking of E2-induced effects on EIII8 3D structures (epithelial multilayering) (EIII8 cells; 1 nM E2 plus 100-fold molar excess of antiestrogen, 5 days): blocked; also recorded: significantly inhibits | inhibition of endothelial sprouting and associated ductal-alveolar morphogenesis (EIII8-HUVEC co-cultures [1]): dramatic inhibition; also recorded: specific inhibition | formation of endothelial cell-enriched spots / endothelial cell growth (MCF10A-HUVEC co-cultures; 1 nM E2 plus 100-fold molar excess ICI 182,780, day 5, MCF10A epithelium maintained): abolished; also recorded: specific inhibition | effect on growth promoting effects of E2 (EIII8-HUVEC co-cultures [2]; 100-fold molar excess over 1 nM E2, day 5, p<0.001): abolished | E2-stimulated VEGF165 levels (VEGF165; ICI 182,780 at 100-fold molar excess over 1 nM E2): returned to control levels | effect on IL-8 levels (IL-8; 100-fold molar excess over 1 nM E2, days 5 and 10): no effect | regulation of Flk-1/KDR protein levels (Flk-1/KDR): no longer regulated | reduction in Flk-1/KDR protein levels (Flk-1/KDR; 100-fold molar excess, 5-day old cultures): about 80% | amount of wild type ER [5]: significantly reduced | inhibition of growth in vehicle- and E2-treated cultures ([4]; 100 nM ICI 182,780 alone or with 1 nM E2, 6 days, p<0.001): significantly inhibited; also recorded: significantly decreased
